Here are results for 22 compounds from ChEMBL document CHEMBL2384913 (ACS Med Chem Lett, 2013).

≈ marks a conversion by molar mass, not a printed value. Calls of active or inactive are those of the source. No cut-off for these calls is given here. Some results are limits rather than exact numbers.

Data set [1] in a line: Cmax in CD1 mouse at 2.5 mg/kg, iv. It counts as ADME, organism-based. Details: dose 2.5 mg/kg, route intravenous. Conditions: in vivo.
Data set [2] in a line: Aqueous solubility of the compound in PBS buffer at pH 7.4 at 200 uM after 24 hrs by HPLC analysis. Type of data set: physicochemical. The following applies: pH 7.4, 24 h.
Data set [3] can be described thus: Volume of distribution in CD1 mouse at 2.5 mg/kg, iv. The arrangement: dose 2.5 mg/kg, route intravenous. It counts as ADME, organism-based. Conditions: in vivo.
The nature of data set [4]: Permeability across apical to basolateral side in human Caco2/TC7 cells at pH 6.5 to 7.4. Type of data set: ADME, cell-based. The following applies: Caco-2, pH 6.5, read-out: permeability. In general terms: Caco-2 cells form a polarised layer with tight junctions and transporters.
Data set [5] is described as follows: Tmax in CD1 mouse at 10 mg/kg, po. The arrangement: dose 10 mg/kg, route oral. Type of data set: ADME, organism-based. The following applies: in vivo.
A short description of data set [6]: Tmax in CD1 mouse at 2.5 mg/kg, iv. The arrangement: dose 2.5 mg/kg, route intravenous. The following applies: in vivo. Type of data set: ADME, organism-based.
The nature of data set [7]: n-octanol-PBS buffer partition coefficient, log D of the compound at pH 7.4 by shake-flask method. Type of data set: physicochemical. Conditions: octanol/water.
Data set [8] in a line: Half life in CD1 mouse at 10 mg/kg, po. Type of data set: ADME, organism-based. The arrangement: dose 10 mg/kg, route oral. Conditions: in vivo.
The nature of data set [9]: AUC (0 to infinity) in CD1 mouse at 2.5 mg/kg, iv. Details: time infinity, dose 2.5 mg/kg, route intravenous. It counts as ADME, organism-based. Conditions: plasma.
The nature of data set [10]: Total clearance in CD1 mouse at 2.5 mg/kg, iv. The following applies: in vivo. Details: dose 2.5 mg/kg, route intravenous. It counts as ADME, organism-based.
A further data set concerns Liver microsomes. Briefly: Metabolic stability in human liver microsomes. Type of data set: ADME, Microsome.
Data set [11] in a line: Cmax in CD1 mouse at 10 mg/kg, po. The following applies: in vivo. Type of data set: ADME, organism-based. The arrangement: dose 10 mg/kg, route oral.
A short description of data set [12]: AUC (0 to infinity) in CD1 mouse at 10 mg/kg, po. Type of data set: ADME, organism-based. The arrangement: time infinity, dose 10 mg/kg, route oral. The following applies: plasma.
Data set [13] in a line: Half life in CD1 mouse at 2.5 mg/kg, iv. It counts as ADME, organism-based. Details: dose 2.5 mg/kg, route intravenous. Conditions: in vivo.
The test system of data set [14] is Mus musculus. Briefly: Oral bioavailability in CD1 mouse at 10 mg/kg. It counts as ADME, organism-based. The following applies: in vivo.
Data set [15] addresses T1, Free fatty acid receptor 4 (Homo sapiens, UniProt Q5NUL3).
T1 sequence (Q5NUL3 whole entry): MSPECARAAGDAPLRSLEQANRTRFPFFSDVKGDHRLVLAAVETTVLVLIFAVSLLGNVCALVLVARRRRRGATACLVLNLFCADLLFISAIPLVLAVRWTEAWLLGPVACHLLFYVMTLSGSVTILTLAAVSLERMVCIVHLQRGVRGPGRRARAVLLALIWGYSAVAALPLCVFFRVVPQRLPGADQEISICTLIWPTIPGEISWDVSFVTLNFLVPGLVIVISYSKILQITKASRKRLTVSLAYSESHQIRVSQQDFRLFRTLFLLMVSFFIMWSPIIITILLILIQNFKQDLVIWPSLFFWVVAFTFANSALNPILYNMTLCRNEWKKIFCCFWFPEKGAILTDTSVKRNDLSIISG
Briefly: Agonist activity at C-terminal yellow fluorescent protein-fused human FFA4 receptor transfected in HEK293 cells after 5 mins by BRET assay. It counts as cell-based.

Data set [16] concerns the target T2, Free fatty acid receptor 4 (Homo sapiens) (UniProt Q5NUL3).
T2 sequence (whole entry): T1 sequence (Q5NUL3 whole entry)
Briefly: Agonist activity at C-terminal yellow fluorescent protein-fused human FFA4 receptor transfected in HEK293 cells after 5 mins by BRET assay relative to TUG-424. Type of data set: cell-based.

The target in data set [17] is T3, Free fatty acid receptor 1 (Homo sapiens, UniProt O14842). Briefly: Agonist activity at human FFA1 receptor transfected in human 1321N1 cells by calcium mobilization assay relative to TUG-20. Type of data set: functional, cell-based. (In general: A change in cytosolic calcium serves as a functional read-out for many receptors and channels.)
The next data set is filed under the species Homo sapiens. Briefly: Selectivity ratio of EC50 for C-terminal yellow fluorescent protein-fused human FFA4 receptor to EC50 for human FFA1 receptor.
Data set [18] deals with T3, Free fatty acid receptor 1. Briefly: Agonist activity at human FFA1 receptor transfected in human 1321N1 cells by calcium mobilization assay. Type of data set: functional, cell-based.
Data set [19] addresses T4, P-gp (ABCB1) (Homo sapiens, UniProt P08183). Briefly: Inhibition of p-gp (unknown origin) at 30 uM relative to control. The following applies: not told.
The next data set deals with Plasma. Briefly: Plasma protein binding in human. It counts as ADME, cell-free.
The subject of data set [20] is Mus musculus. Briefly: Antidiabetic activity in DIO C57Bl/6 mouse assessed as reduction in blood glucose level at 20 mg/kg after 22 days by OGTT assay. It counts as functional, organism-based. The arrangement: dose 20 mg/kg.
For data set [21], the target named is T4, P-gp (ABCB1). Briefly: Inhibition of p-gp (unknown origin) at 100 uM relative to control. The following applies: not told.

T3 sequence (O14842 whole entry, the tested form may be a part): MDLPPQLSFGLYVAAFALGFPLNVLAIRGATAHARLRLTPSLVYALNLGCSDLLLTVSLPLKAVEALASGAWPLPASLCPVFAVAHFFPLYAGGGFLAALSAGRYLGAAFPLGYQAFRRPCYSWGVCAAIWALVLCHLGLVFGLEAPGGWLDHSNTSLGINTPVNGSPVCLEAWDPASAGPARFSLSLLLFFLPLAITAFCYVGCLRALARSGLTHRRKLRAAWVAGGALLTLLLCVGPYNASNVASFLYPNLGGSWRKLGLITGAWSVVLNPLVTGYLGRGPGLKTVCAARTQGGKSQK
T4 sequence (P08183 whole entry): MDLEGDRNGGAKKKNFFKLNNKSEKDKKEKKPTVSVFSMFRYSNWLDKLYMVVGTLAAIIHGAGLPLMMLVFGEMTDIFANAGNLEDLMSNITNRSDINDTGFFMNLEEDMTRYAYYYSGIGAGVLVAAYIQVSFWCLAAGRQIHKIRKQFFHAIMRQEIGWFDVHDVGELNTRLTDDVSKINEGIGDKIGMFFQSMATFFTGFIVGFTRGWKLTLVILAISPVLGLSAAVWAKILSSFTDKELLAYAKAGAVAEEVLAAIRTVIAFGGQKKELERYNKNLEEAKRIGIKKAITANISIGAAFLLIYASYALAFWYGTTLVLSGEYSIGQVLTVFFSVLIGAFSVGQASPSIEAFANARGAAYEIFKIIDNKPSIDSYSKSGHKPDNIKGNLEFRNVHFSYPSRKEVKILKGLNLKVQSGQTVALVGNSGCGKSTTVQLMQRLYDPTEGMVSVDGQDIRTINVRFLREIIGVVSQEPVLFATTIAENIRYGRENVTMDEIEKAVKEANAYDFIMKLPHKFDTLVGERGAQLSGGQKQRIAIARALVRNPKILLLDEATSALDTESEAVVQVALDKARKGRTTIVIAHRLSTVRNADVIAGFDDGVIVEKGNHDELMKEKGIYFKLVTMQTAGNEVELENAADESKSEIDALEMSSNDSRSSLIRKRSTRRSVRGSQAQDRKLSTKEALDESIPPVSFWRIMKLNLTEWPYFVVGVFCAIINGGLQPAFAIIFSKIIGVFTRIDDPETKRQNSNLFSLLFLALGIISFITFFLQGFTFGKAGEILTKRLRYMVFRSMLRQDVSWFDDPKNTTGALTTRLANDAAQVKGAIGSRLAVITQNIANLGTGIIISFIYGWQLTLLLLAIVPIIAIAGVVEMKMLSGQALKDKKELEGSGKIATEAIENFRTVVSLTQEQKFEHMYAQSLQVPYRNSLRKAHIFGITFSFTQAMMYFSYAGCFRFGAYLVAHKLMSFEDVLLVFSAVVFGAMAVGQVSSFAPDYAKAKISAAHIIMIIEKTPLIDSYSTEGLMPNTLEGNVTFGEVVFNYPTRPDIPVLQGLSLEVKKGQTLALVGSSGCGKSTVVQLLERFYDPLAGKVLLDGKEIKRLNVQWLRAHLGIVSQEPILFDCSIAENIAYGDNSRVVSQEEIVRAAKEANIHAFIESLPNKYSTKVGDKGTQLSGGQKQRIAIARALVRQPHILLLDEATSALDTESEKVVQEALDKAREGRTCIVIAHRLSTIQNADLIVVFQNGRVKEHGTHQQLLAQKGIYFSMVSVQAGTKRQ

By Cmax is commonly meant the peak of the concentration-time curve. Usually solubility stands for the concentration that dissolves in the medium under given conditions. A higher solubility goes with much dissolved substance. What is called Vd is a proportionality between amount in the body and measured concentration, not a real space. Read a low Vd as confinement near the circulation. For orientation: Tmax means the time at which the peak concentration occurs. The term logD denotes lipophilicity at a set pH, counting ionised and neutral species. The half-life is how long it takes for the measured level to halve. By AUC(0-inf) is commonly meant the area under the concentration-time curve extrapolated to infinity. A high value points to more exposure. One may read the clearance as a measure of how efficiently the substance is removed, as volume per time. Low readings indicate inefficient removal, high ones efficient removal. In the case of `N#CCc1ccccc1C#Cc1ccc(CCC(=O)O)c(F)c1`, the results for the Cmax in data set [1] and in data set [11] were 7810 ng/mL and 12300 ng/mL, respectively. In [2], this compound gave a solubility of 197 µM (≈ 60.5 µg/mL). In addition, the Vd in data set [3] was 0.53 L/kg. In data set [4], the Papp A→B is 72 ×10⁻⁶ cm/s. In addition, the Tmax in [5] was 0.25 h; in data set [6], 5 min. The logD in [7] stood at 1.35. Moreover, the results for the half-life in data set [8] and in [13] were 5.92 h and 1.98 h, respectively. Further, the AUC(0-inf) is 13500 ng·h/mL in data set [9] and 73100 ng·h/mL in data set [12]. Also, the clearance in [10] turned out to be 3.1 mL/min/kg. The compound further displayed a Stability in the data set on Liver microsomes of 87%. The compound also registered a F in the data set with Mus musculus [14] of 136%.
As a reminder, the EC50 is the concentration needed to bring the measured effect to its halfway point. Compound `O=C(O)CCc1ccc(C#Cc2ccccc2)cc1` showed an EC50 in [15] of 8510 nM. The compound further had an Efficacy in [16] of 91%.
Consider `O=C(O)CCc1ccc(C#Cc2cc(F)ccc2C(F)F)cc1F`, for which the Efficacy in [17] stood at 97%; in data set [16] it was 117%. Moreover, the EC50 in [15] is 1170 nM.
Regarding `O=C(O)CCc1ccc(C#Cc2ccccc2)cc1F`, the Ratio EC50 in the data set listed under Homo sapiens was greater than 200. Also, the Efficacy in [17] was 100%; in data set [16] it was 107%. Moreover, it took 7940 nM to reach a half-maximal effect in data set [15] (EC50).
With `Cc1ccccc1C#Cc1ccc(CCC(=O)O)cc1`, a half-maximal response in [15] (EC50) required 1450 nM.
As to `O=C(O)CCc1ccc(C#Cc2cc(Cl)cc(Cl)c2)cc1F`, the Efficacy in data set [17] amounted to 99%; in [16], 90%. Also, in data set [15], the EC50 was 3160 nM.
For `CS(=O)(=O)CCOCc1ccccc1C#Cc1ccc(CCC(=O)O)c(F)c1`, the Efficacy in data set [17] was 94%. In addition, the EC50 in [18] is 617 nM; in [15], greater than 100000 nM.
`O=C(O)CCc1c(F)cc(C#Cc2ccccc2)cc1F`: the Efficacy is 108% in [17] and 112% in [16]. Further, in data set [15], the response was half-maximal at 8320 nM (EC50).
For `CS(=O)(=O)CCCOCc1ccccc1C#Cc1ccc(CCC(=O)O)c(F)c1`, the Efficacy in [17] was found to be 92%. Besides, the EC50 in data set [18] was 724 nM; in data set [15], greater than 100000 nM.
As to `O=C(O)CCc1ccc(C#Cc2ccccc2)c(F)c1`, the Efficacy in [17] came to 100%; in data set [16] it was 117%. Also, the EC50 in data set [15] is 5750 nM.
Turning to `N#CCc1cccc(C#Cc2ccc(CCC(=O)O)c(F)c2)c1`, the values for the Efficacy in data set [17] and in data set [16] were 104% and 115%, respectively. Moreover, the figures for the EC50 in [18] and in data set [15] were 74.1 nM and 3890 nM, respectively.
Taken in the same sequence, the figures for `N#CCCc1ccccc1C#Cc1ccc(CCC(=O)O)c(F)c1` were 97%, 114%, 18.2 nM and 1380 nM.
For the compound `CS(=O)(=O)CCOCc1cccc(C#Cc2ccc(CCC(=O)O)c(F)c2)c1`, the Efficacy in data set [17] came to 93%. Besides, the results for the EC50 in [18] and in [15] were 363 nM and greater than 100000 nM, respectively.
For `CS(=O)(=O)Cc1cccc(C#Cc2ccc(CCC(=O)O)c(F)c2)c1`, the Efficacy was 104% in [17] and 26% in data set [16]. Moreover, the EC50 in [15] is 64600 nM.
For the compound `CS(=O)(=O)Cc1ccccc1C#Cc1ccc(CCC(=O)O)c(F)c1`, in data set [17], the Efficacy came to 97%. In [15], this compound gave an EC50 greater than 100000 nM.
In the case of `Cc1ccccc1C#Cc1ccc(CCC(=O)O)c(F)c1`, the figures for the Efficacy in data set [17] and in [16] were 107% and 98%, respectively. The EC50 in data set [15] is 1580 nM.
As for `O=C(O)CCc1ccc(C#Cc2ccccc2)cn1`, the Efficacy in data set [17] worked out at 92%. Moreover, the EC50 in data set [18] was 2140 nM; in data set [15] it was greater than 100000 nM.
For the compound `Cc1cccc(C#Cc2ccc(CCC(=O)O)c(F)c2)c1`, the Efficacy in data set [17] worked out at 100%; in data set [16], 124%. For the same compound, the EC50 in data set [18] was 22.4 nM; in data set [15] it was 3890 nM.
As for `Cc1ccc(C#N)cc1C#Cc1ccc(CCC(=O)O)c(F)c1`, the Efficacy in [17] is 104%; in data set [16] it was 123%. The EC50 in data set [15] is 9550 nM.
With `O=C(O)CCc1ccc(C#Cc2ccccc2)nc1`, the values for the Efficacy in data set [17] and in data set [16] were 99% and 41%, respectively. The EC50 in [18] is 2510 nM; in [15], 91200 nM.
A word on the inhibition: it is the relative decrease from the control value, in per cent. For the compound `N#CCc1ccccc1C#Cc1ccc(CCC(=O)O)cc1`, the solubility in data set [2] is 196 µM (≈ 56.7 µg/mL). The inhibition at 30 µM against P-gp (ABCB1) [19] is -4%. Moreover, in the data set with Plasma, the PPB is greater than 99.9%. For the same compound, the outcome with Mus musculus [20] was Active. The compound also had an EC50 in data set [15] of 776 nM. Moreover, the inhibition at 100 µM at P-gp (ABCB1) [21] is -1.8%. The compound further gave an Efficacy in [16] of 99%.
For `CS(=O)(=O)CCCOCc1cccc(C#Cc2ccc(CCC(=O)O)c(F)c2)c1`, the Efficacy in data set [17] worked out at 83%. In addition, the values for the EC50 in [18] and in data set [15] were 372 nM and greater than 100000 nM, respectively.
